Where two headings read alike, the source gives them in different places.
Columns and labels:
Type in all cases: cell-based
[1] = molecular target: T1, Alpha 1A (Homo sapiens, UniProt P35348); experiment: RSAT assay (Receptor Selection and Amplification Technology), Alpha 1A; settings: value in parentheses, ratio of maximal effect of drug to maximal effect of standard full agonist
T1 sequence (P35348 1-466): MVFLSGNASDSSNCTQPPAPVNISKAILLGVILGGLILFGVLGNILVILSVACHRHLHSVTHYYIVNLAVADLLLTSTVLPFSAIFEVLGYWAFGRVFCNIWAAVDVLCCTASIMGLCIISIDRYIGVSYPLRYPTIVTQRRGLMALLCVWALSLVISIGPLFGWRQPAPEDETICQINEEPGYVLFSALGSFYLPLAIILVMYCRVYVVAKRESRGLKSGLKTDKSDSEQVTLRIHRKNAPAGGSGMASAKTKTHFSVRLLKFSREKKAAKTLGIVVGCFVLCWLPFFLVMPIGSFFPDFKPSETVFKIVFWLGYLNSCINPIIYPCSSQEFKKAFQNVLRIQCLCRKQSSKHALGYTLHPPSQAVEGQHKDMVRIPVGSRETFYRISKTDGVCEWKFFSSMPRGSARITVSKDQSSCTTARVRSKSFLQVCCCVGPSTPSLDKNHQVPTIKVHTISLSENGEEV
Description: (§1) The RSAT assay measures a receptor-mediated loss of contact inhibition that results in selective proliferation of receptor-containing cells in a mixed population of confluent cells. The increase in cell number is assessed with an appropriate transfected marker gene such as β-galactosidase, the activity of which can be easily measured in a 96-well format. Receptors that activate the G protein, Gq, elicit this response. Alpha 2 receptors, which normally couple to Gi, activate the RSAT response when coexpressed with a hybrid Gq protein that has a Gi receptor recognition domain, called Gq/i5.
(§2) NIH-3T3 cells are plated at a density of 2×10^6 cells in 15 cm dishes and maintained in Dulbecco's modified Eagle's medium supplemented with 10% calf serum. One day later, cells are cotransfected by calcium phosphate precipitation with mammalian expression plasmids encoding p-SV-β-galactosidase (5-10 μg), receptor (1-2 μg) and G protein (1-2 μg). 40 μg salmon sperm DNA may also be included in the transfection mixture. […] Cells are thawed and 100 μl added to 100 μL aliquots of various concentrations of drugs in triplicate in 96-well dishes. Incubations continue 72-96 hr at 37° C. After washing with phosphate-buffered saline, β-galactosidase enzyme activity is determined by adding 200 μL of the chromogenic substrate (consisting of 3.5 mM o-nitrophenyl-β-D-galactopyranoside and 0.5% nonidet P-40 in phosphate buffered saline), incubating overnight at 30° C. and measuring optical density at 420 nm. The absorbance is a measure of enzyme activity, which depends on cell number and reflects a receptor-mediated cell proliferation. The efficacy or intrinsic activity is calculated as a ratio of the maximal effect of the drug to the maximal effect of a standard full agonist for each receptor subtype. Brimonidine, the chemical structure of which is shown below, is used as the standard agonist for the alpha 2B and alpha 2C receptors. […] NA stands for “not active” at concentrations less than 3-10 micromolar.

[2] = molecular target: T2, alpha 2B receptor (Homo sapiens, UniProt P18089); experiment: RSAT assay (Receptor Selection and Amplification Technology), Alpha 2B; settings: for Intrinsic Activity efficacy Alpha 2B: value in parentheses, ratio of maximal effect to that of brimonidine
T2 construct: expressed in transfected cells; host or cells: NIH-3T3
T2 sequence (P18089 1-450): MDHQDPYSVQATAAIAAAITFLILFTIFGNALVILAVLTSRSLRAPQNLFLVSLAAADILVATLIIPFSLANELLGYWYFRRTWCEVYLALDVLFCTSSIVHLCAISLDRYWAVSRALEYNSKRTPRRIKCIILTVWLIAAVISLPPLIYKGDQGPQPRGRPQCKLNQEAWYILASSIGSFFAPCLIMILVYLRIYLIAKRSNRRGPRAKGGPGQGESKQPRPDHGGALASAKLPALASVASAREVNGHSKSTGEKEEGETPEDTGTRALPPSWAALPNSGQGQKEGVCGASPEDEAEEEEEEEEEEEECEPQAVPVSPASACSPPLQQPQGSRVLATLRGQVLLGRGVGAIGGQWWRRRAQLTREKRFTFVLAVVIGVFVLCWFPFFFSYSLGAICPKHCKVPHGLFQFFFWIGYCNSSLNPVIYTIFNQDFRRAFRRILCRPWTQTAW
Description: as §1, §2

[3] = molecular target: T3, alpha 2C receptor (Homo sapiens, UniProt P18825); experiment: RSAT assay (Receptor Selection and Amplification Technology), Alpha 2C; settings: for Intrinsic Activity efficacy Alpha 2C: value in parentheses, ratio of maximal effect to that of brimonidine
T3 construct: expressed in transfected cells; host or cells: NIH-3T3
T3 sequence (P18825 1-462): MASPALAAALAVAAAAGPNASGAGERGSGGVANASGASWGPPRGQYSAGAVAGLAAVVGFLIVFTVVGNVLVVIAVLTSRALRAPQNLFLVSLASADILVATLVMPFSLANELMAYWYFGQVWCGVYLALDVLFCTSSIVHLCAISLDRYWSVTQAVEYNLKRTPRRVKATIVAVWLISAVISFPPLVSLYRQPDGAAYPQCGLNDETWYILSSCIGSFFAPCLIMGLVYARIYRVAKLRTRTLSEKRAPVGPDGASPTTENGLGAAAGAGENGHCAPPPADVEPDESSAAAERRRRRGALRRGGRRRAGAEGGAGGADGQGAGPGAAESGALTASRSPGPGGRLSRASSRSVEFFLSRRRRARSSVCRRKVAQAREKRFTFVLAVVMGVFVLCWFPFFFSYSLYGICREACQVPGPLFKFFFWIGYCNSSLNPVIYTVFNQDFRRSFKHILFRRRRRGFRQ
Description: as §1, §2

[4] = RSAT, transfected NIH-3T3 cells with Gq/i5, Table 1, read-out: potency nM (EC50) Alpha 2B
[5] = RSAT, transfected NIH-3T3 cells with Gq/i5, NA = not active at concentrations less than 10 micromolar, read-out: potency nM (EC50) Alpha 2C

SMILES | Intrinsic Activity efficacy Alpha 1A [1] | EC50 [2, 4] | Intrinsic Activity efficacy Alpha 2B ([2]; RSAT, Table 1) | EC50 [3, 5] | Intrinsic Activity efficacy Alpha 2C ([3]; RSAT) | EC50 [2] | EC50 [3]
COc1ccccc1C(Cc1cccnc1)/N=C1/NCCS1 (centres unmarked) [Compound 11, 1-(2-Methoxyphenyl)-2-(pyridin-3-yl)-N-(thiazolidin-2-ylidene)ethanamine] | 1.6 | 17 nM | 0.78 | 17 nM | 0.86 |  | 
COc1ccccc1C(Cc1cccnc1)/N=C1/NCCO1 (centres unmarked) [Compound 13, 1-(2-Methoxyphenyl)-N-(oxazolidin-2-ylidene)-2-(pyridin-3-yl)ethanamine] | 1.12 | 9 nM | 0.62 | 23 nM | 0.66 |  | 
c1ccc(C(Cc2cnccn2)/N=C2/NCCS2)cc1 (centres unmarked) [Compound 16, 1-Phenyl-2-(pyrazin-2-yl)-N-(thiazolidin-2-ylidene)ethanamine] | 1.1 | 170 nM | 0.97 | 100 nM | 0.5 |  | 
Clc1cccc(C(Cc2ccncc2)/N=C2/NCCO2)c1Cl (centres unmarked) [Compound 17, 1-(2,3-Dichlorophenyl)-N-(oxazolidin-2-ylidene)-2-(pyridin-4-yl)ethanamine] | 1.3 | 5 nM | 1.15 | 30 nM | 0.65 |  | 
Fc1cccc(C(Cc2ccncc2)/N=C2/NCCO2)c1 (centres unmarked) [Compound 24, 1-(3-Fluorophenyl)-N-(oxazolidin-2-ylidene)-2-(pyridin-4-yl)ethanamine] | 1.1 | 14.3 nM | 0.98 | 237 nM | 0.93 |  | 
Fc1cccc(C(Cc2ccncc2)N=C2NCCN2)c1 (centres unmarked) [Compound 25, 1-(3-Fluorophenyl)-N-(imidazolidin-2-ylidene)-2-(pyridin-4-yl)ethanamine] | 0.97 |  | 0.68 |  | 1.03 | 25 nM | 16 nM
c1ccc([C@@H](Cc2ccncc2)/N=C2/NCCO2)cc1 [Compound 30, R—N-(oxazolidin-2-ylidene)-1-phenyl-2-(pyridin-4-yl)ethanamine] | 1.1 |  | 1.16 |  | 0.78 | 6 nM | 24 nM

Continued by falling EC50 [2, 4], values first:

Intrinsic Activity efficacy Alpha 1A [1] | EC50 [2, 4] | Intrinsic Activity efficacy Alpha 2B ([2]; RSAT, Table 1) | EC50 [3, 5] | Intrinsic Activity efficacy Alpha 2C ([3]; RSAT) | SMILES | EC50 [2] | EC50 [3]
1.1 | 21 nM | 0.64 | 6.1 nM | 1.0 | c1ccc([C@@H](Cc2ccncc2)/N=C2/NCCS2)cc1 [Compound 31, R-1-phenyl-2-(pyridin-4-yl)-N-(thiazolidin-2-ylidene)ethanamine] |  | 
0.88 | 2.1 nM | 1.1 | 80 nM | 0.68 | Cc1cccc(C(Cc2ccncc2)/N=C2/NCCO2)c1C (centres unmarked) [Compound 6, 1-(2,3-Dimethylphenyl)-N-(oxazolidin-2-ylidene)-2-(pyridin-4-yl)ethanamine] |  | 
1.0 | 2 nM | 1.1 | 21 nM | 0.6 | Clc1cccc(C(Cc2ccncc2)/N=C2/NCCS2)c1Cl (centres unmarked) [Compound 18, 1-(2,3-Dichlorophenyl)-2-(pyridin-4-yl)-N-(thiazolidin-2-ylidene)ethanamine] |  | 
